Results published in patent US20040175368A1 (Wisconsin Alumni Research Foundation, priority 2001, published 2004).

Key:
murine CFU-GM cells = assay: Dye-sensitized photoinactivation of normal hematopoietic CFU-GM cells, in vitro clonal assay; type: cell-based; conditions: 1.0×10^−6 M dye, 12% FBS, light up to 90 min (FIG. 3 lower panel)
RBL cells = assay: Two-photon laser scanning microscopy of intracellular dye distribution; type: cell-based, rat; conditions: 0.2 μM dye; for intracellular distribution of dye fluorescence: 10 minutes incubation
Experimental: RBL cells were incubated in the dark at a concentration of 1.1×10^5 cells/mL for periods ranging from 1 minute to 1 hour with fresh growth media containing 0.2 μM CV^+or Ev^+and subsequently incubated for 30 minutes in the dark with fresh growth media containing 0.05 μM Rh123; After a final cycle of washing and incubation for 15 minutes in fresh growth media, the media were replaced by modified Tyrode's solution containing 5 mM glucose and bovine serum albumin, and the cells were subjected to two-photon imaging. The examination of TAM^+accumulation into mitochondria was carried out through the comparison of the spatial distribution of the fluorescence of these dyes in the cellular environment with that of Rh123 (a classical mitochondrial marker^1,3) and the endogenous NAD(P)H. Fluorescence distributions within living RBL cells were obtained with a laser scanning multiphoton microscope (Bio-Rad MP1024). […] Three external detectors located in the Fourier plane of the microscope and equipped with appropriate sets of longpass dichroic and bandpass filters (from Chroma) were used for the simultaneous detection of two-photon excited fluorescence of NAD(P)H (400-500 nm), Rh123 (520-550 nm), and CV^+or EV^+(600-660 nm). To obtain sufficient fluorescence from CV^+,EV^+, and cellular NAD(P)H autofluorescence (all inefficient fluorophores), average excitation powers of approximately 18 mW were required. […]
Two-photon laser scanning microscopy^22,28 was used to obtain information on intracellular distribution and mitochondrial accumulation of CV^+and EV^+in RBL cells. […] Simultaneous two-photon images of NAD(P)H, Rh123, and TAM^+fluorescence were obtained by exciting RBL cells at 750 nm with a Ti:Sapphire laser (75 fs, 80 MHz, 18 mW) as the excitation source. No morphologic alterations or induction of fluorescence attributed to cellular photodamage was observed during the brief imaging period (approximately 3 seconds), and the bleaching of the three fluorophores was also negligible during this period. […]

L1210 cells = assay: Uptake of dye by L1210 cells; type: cell-based, murine; conditions: for Dye Uptake by L1210 Cells: 1 hour at 37° C. in the dark, 12% FBS
Experimental: L1210 cells were suspended at a concentration of 1.0×10^6 cells/mL in HEPES-buffered (10 mM, pH 7.4) alpha-medium supplemented with FBS (12%), and the TAM^+dyes were added from 1.0×10^−4M stock solutions in 50% ethanol to final concentrations of […]. The cells were subsequently incubated in the dark for 1 hour at 37° C., pelleted, washed with dye-free medium, and extracted with ethanol (1 mL per […]). The dye content of each extract was determined spectrophotometrically using calibration curves assembled using suitable dilutions of authentic dye in ethanol extracts of cells that had been incubated in dye-free medium.

[1] = Photobleaching quantum efficiency of TAM+ dyes noncovalently bound to BSA (532-nm laser photolysis); type: physicochemical
Experimental: Spectrophotometric studies were performed with a Shimadzu UV-2101PC spectrophotometer. 1-Octanol/water partition coefficients^18 (P), were determined at 25° C. using equal volumes of water and 1-octanol. Typically, five distinct solutions of each dye in the concentration range between 1 μM and 10 μM were prepared in deionized water and subsequently equilibrated with 1-octanol. After the equilibrium was reached, the final dye concentrations in the aqueous and/or organic phases were determined by absorption spectroscopy. For the measurement of photobleaching quantum efficiencies, the samples were placed in standard 10-mm (optical path) quartz cells at a distance of approximately 10 cm from the light source and photolyzed using the 532-nm line of an Nd:YAG laser model 7010 from Continuum operating at a repetition rate of 10 Hz. The defocused laser beam (circular profile with a diameter of about 5 mm) was directed to the center of the quartz cell. The absolute photolysis energy (or the number of 532-nm photons per laser pulse) was kept constant over the course of any specific experiment. The temperature-controlled cell holder allowed continuous magnetic stirring of the samples during photolysis. The photobleaching quantum efficiencies were based on the photobleaching efficiency of a classical chemical actinometer, potassium ferrioxalate, ^19,20 and determined considering only the first 5 to 10% decrease in dye concentration. The photolysis energy was adjusted to appropriate levels with the use of a calibrated solid-state joulemeter model PM30VI from Molectron.
To explore how the photoreactivity of the TAM^+dyes in complex biologic environments correlates with the observed phototoxic effects toward tumor and normal cells, the photo-bleaching efficiency of TAM^+dyes noncovalently bound to a model biologic host (bovine serum albumin, BSA) was measured. For the case of CFU-GM cells, the efficacy of photoinduced cell destruction mediated by TAM^+dyes precisely paralleled the photochemical reactivity of these photosensitizers. Both, phototoxicity (FIG. 3, lower panel) and photoreactivity (Table 1) followed the decreasing order EV^+>VPBBO^+>CV^+>VBR^+.

| quantum efficiency of photobleaching, nitrogen-purged relative to air-equilibrated samples ([1]; BSA-bound) | photobleaching efficiency of dimer relative to monomer ([1]; BSA-bound, air-equilibrated) | photobleaching efficiency of BSA-bound dimer ([1]; air-equilibrated samples, dimer) | photobleaching efficiency of BSA-bound monomer ([1]; air-equilibrated samples, monomer) | Structure (SMILES) | phototoxicity toward normal hematopoietic CFU-GM cells (in words) (murine CFU-GM cells) | intracellular distribution of dye fluorescence (RBL cells) | Dye Uptake by L1210 Cells (L1210 cells) | phototoxicity toward normal hematopoietic CFU-GM cells (in words) (murine CFU-GM cells; listed as VPBBO+) | effect on mitochondria after prolonged incubation (RBL cells; 1 hour incubation, then 0.05 μM Rh123) | relative efficiency of uptake by L1210 cells (in words) (L1210 cells; among the TAM+ dyes tested) |
| --- | --- | --- | --- | --- | --- | --- | --- | --- | --- | --- |
| – | – | – | – | CCN(CC)c1ccc(C(=C2C=CC(=[N+](CC)CC)C=C2)c2ccc(N(CC)CC)cc2)cc1 [EV^+, ethyl violet] | phototoxic toward both cell lines | also accumulates into cell mitochondria | 1.76e+08 molecules/cell | – | – | – |
| – | – | – | – | CCN=C1C=CC(=C(c2ccc(N(CC)CC)cc2)c2ccc(N(CC)CC)cc2)c2ccccc21.Cl [VPBBO^+, victoria pure blue BO] | considerably more efficient in inactivating normal hematopoietic cells | – | 1.16e+08 molecules/cell | intermediate efficacy | – | – |
| – | – | – | – | CCN=C1C=CC(=C(c2ccc(N(C)C)cc2)c2ccc(N(C)C)cc2)c2ccccc21.Cl [VBR^+, victoria blue R] | lowest efficacy | – | 8.8e+07 molecules/cell | – | – | – |
| twofold higher | eightfold higher | 1.1×10^−4 | 1.3×10^−5 | CN(C)c1ccc(C(=C2C=CC(=[N+](C)C)C=C2)c2ccc(N(C)C)cc2)cc1 [CV^+, crystal violet] | comparatively small toxic effects | consistent with mitochondrial localization | 2.14e+08 molecules/cell | – | mitochondrial inner membrane potential has been reduced | most efficiently taken up by L1210 cells |
